13 molecules from ChEMBL document CHEMBL1201862, “PubChem BioAssay data set” (2004) can be followed below.

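Exposure lasted 48 hours, with cells grown in 96-well plates and compounds tested at five concentrations. Here, GI50 denotes the concentration required for 50% inhibition of growth.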 The source made the active and inactive calls. Rule as the data show it: active = GI50 up to about 1.1 µM and inactive = higher.

Common to all, as to assay: NCI-60 cell line screen, 48 h
The subject of assay [1] is CCRF-CEM.
Assay [2] relates to DU-145.
The test system of assay [3] is HCT-116.
The subject of assay [4] is KM12.
The subject of assay [5] is MOLT-4.
For assay [6], the system named is NCI-H226.
Assay [7] concerns OVCAR-4.
Assay [8] relates to PC-3.
Assay [9] deals with SF-268.
Assay [10] has as its system SF-295.
The test system of assay [11] is SF-539.
Assay [12] deals with SK-MEL-5.
Assay [13] deals with SR.
Assay [14] deals with SW-620.
Assay [15] relates to TK-10.
Assay [16] deals with UACC-257.

Turning to `O=c1c2nc[nH]c2n(-c2ccccc2)c(=S)n1-c1ccccc1`, the GI50 in [1], in assay [2], in assay [3], in assay [4], in [5] and in assay [6] was > 100 µM (inactive) each time. In addition, the GI50 in [7], in assay [8], in assay [9], in assay [10], in assay [11] and in assay [12] was > 100 µM (inactive) each time. For the same molecule, the GI50 in assay [13], in assay [14], in assay [15] and in assay [16] was > 100 µM (inactive) in each case.

On to `Cc1nnc2n1-c1ccccc1C(=S)N1CSCC21` (stereo unspecified), for which the GI50 in assay [1], in assay [2], in [3], in assay [4], in assay [5] and in assay [6] was > 100 µM (inactive) each time. For the same molecule, the GI50 in assay [7], in assay [8], in [9], in assay [10], in [12] and in [13] was > 100 µM (inactive) each time. Also, the GI50 in [14], in [15] and in [16] was > 100 µM (inactive) each time.

`O=C1c2ccccc2C(=O)N1n1c(Cc2ccc(Cl)cc2)n[nH]c1=O`: the GI50 in assay [1], in assay [2], in assay [3], in assay [4], in assay [5] and in assay [6] was > 100 µM (inactive) throughout. Moreover, the GI50 in assay [7], in assay [8], in assay [10], in [11], in [12] and in assay [13] was > 100 µM (inactive) throughout. The GI50 in assay [14], in assay [15] and in [16] was > 100 µM (inactive) in each case.

Consider `Fc1cccc(F)c1C1SCc2nc3cc(Cl)c(Cl)cc3n21` (stereo unspecified), for which the GI50 in assay [1], in assay [2], in assay [3], in [4], in assay [5] and in assay [7] was > 100 µM (inactive) throughout. Also, the GI50 in assay [8], in assay [9], in assay [10], in assay [11], in assay [12] and in assay [13] was > 100 µM (inactive) each time. Moreover, the GI50 in assay [14], in [15] and in assay [16] was > 100 µM (inactive) throughout.

On to `O=C1C=Cc2c(Br)sc(Br)c21`, for which the GI50 in [1] is 2.64 µM (inactive); in assay [2], 43.8 µM (inactive); in assay [3], 29.1 µM (inactive); in assay [4], 37.4 µM (inactive); in assay [5], 13.5 µM (inactive); in [8], 19.7 µM (inactive). The GI50 in assay [9] is 30.5 µM (inactive); in [10] it was > 100 µM (inactive); in assay [11] it was 59.3 µM (inactive); in assay [12], 91.2 µM (inactive); in [13], 24.7 µM (inactive); in [14], 18 µM (inactive). Besides, the GI50 in assay [15] was 4.78 µM (inactive); in assay [16] it was 26.6 µM (inactive).

For the molecule `CNC(=O)Oc1ccc(C(=S)Nc2ccc(Br)cc2)cc1`, the GI50 is 1.81 µM (inactive) in assay [1]; 26.5 µM (inactive) in [2]; 19.8 µM (inactive) in assay [3]; 14.3 µM (inactive) in assay [4]; 5.42 µM (inactive) in assay [5]; 18.5 µM (inactive) in assay [7]. In addition, the GI50 in [8] is 23.8 µM (inactive); in assay [9], 9.55 µM (inactive); in assay [11] it was 18.4 µM (inactive); in assay [12], 17.8 µM (inactive); in [13], 13.6 µM (inactive); in assay [14] it was 23.1 µM (inactive). Further, the GI50 in [16] was 28.4 µM (inactive).

Regarding `O=C(CC(NC(=O)OCc1ccccc1)C(=O)NC1Cc2ccccc2C1=O)OCc1ccccc1` (stereo unspecified), the GI50 in [2], in assay [4], in assay [5], in [6], in assay [8] and in [9] was > 100 µM (inactive) in each case. Besides, the GI50 in assay [10], in assay [11], in assay [12], in [13], in assay [14] and in assay [15] was > 100 µM (inactive) throughout. Moreover, in assay [16], the GI50 was 86.5 µM (inactive).

As for `Cc1cccc(NS(=O)(=O)c2ccc3c(c2)OCCOCCOCCOCCO3)c1`, the GI50 in assay [1] was > 100 µM (inactive); in assay [2], > 100 µM (inactive); in [3], > 100 µM (inactive); in assay [4], > 100 µM (inactive); in assay [5], 63 µM (inactive); in assay [6] it was > 100 µM (inactive). Further, the GI50 in assay [8] was > 100 µM (inactive); in [9] it was > 100 µM (inactive); in assay [10], > 100 µM (inactive); in assay [11], > 100 µM (inactive); in assay [12], > 100 µM (inactive); in [13], 53 µM (inactive). In addition, the GI50 in assay [14], in [15] and in assay [16] was > 100 µM (inactive) in each case.

Turning to `O=C1C=CC2(C=C1)O[C@H](COCc1ccccc1)[C@@H](COCc1ccccc1)O2`, the GI50 in assay [2] is 2.7 µM (inactive); in assay [3], 0.235 µM (active); in assay [4] it was 3.49 µM (inactive); in assay [5], 0.371 µM (active); in assay [6], 1.82 µM (inactive); in assay [7], 2.23 µM (inactive). Besides, the GI50 is 2.13 µM (inactive) in assay [8]; 1.64 µM (inactive) in assay [9]; 16 µM (inactive) in assay [10]; 1.97 µM (inactive) in assay [11]; 1.67 µM (inactive) in [12]; 0.251 µM (active) in assay [13]. Besides, the GI50 is 0.271 µM (active) in assay [14], 1.6 µM (inactive) in [15] and 1.62 µM (inactive) in assay [16].

As for `CC(C)[C@@H]1CC[C@@H](C)C[C@H]1OC(=O)c1c2n(c3ccccc13)C[C@H]1OC(C)(C)O[C@@H]21`, the GI50 is 4.22 µM (inactive) in assay [1]; 20 µM (inactive) in assay [2]; 4.36 µM (inactive) in assay [3]; 9.08 µM (inactive) in [4]; 3.87 µM (inactive) in assay [5]; 22.3 µM (inactive) in assay [6]. For the same molecule, the GI50 in assay [7] was 20.9 µM (inactive); in assay [8], 5.71 µM (inactive); in [9] it was 19.2 µM (inactive); in assay [10], 6.46 µM (inactive); in [12], 5.5 µM (inactive); in [13], 3.23 µM (inactive). Besides, the GI50 in assay [14] was 16.6 µM (inactive); in assay [15], 18.5 µM (inactive); in assay [16] it was 6.95 µM (inactive).

As for `COC(=O)c1ccccc1C1=C([N+](=O)[O-])C(c2cccc(Br)c2)C(C#N)=C(N)O1` (stereo unspecified), the GI50 in assay [1] was 20.8 µM (inactive); in assay [2], 32.3 µM (inactive); in [3], 31.5 µM (inactive); in [4], > 10 µM (inactive); in assay [5], 25.4 µM (inactive); in assay [6] it was > 100 µM (inactive). In addition, the GI50 was 40.6 µM (inactive) in assay [8]; 25.8 µM (inactive) in [9]; > 100 µM (inactive) in assay [10]; 61 µM (inactive) in assay [11]; 86.5 µM (inactive) in assay [12]; 18.2 µM (inactive) in assay [13]. Moreover, the GI50 was 25.8 µM (inactive) in assay [14], 46.5 µM (inactive) in assay [15] and 36.1 µM (inactive) in assay [16].

Take `COc1ccc(/C=C2\N=C(c3ccccc3)N(NC3=NC(=O)CC(=O)N3)C2=O)cc1`: the GI50 was 39.2 µM (inactive) in [1]; > 100 µM (inactive) in assay [2]; > 100 µM (inactive) in [3]; > 100 µM (inactive) in assay [4]; > 100 µM (inactive) in [5]; > 100 µM (inactive) in [6]. Moreover, the GI50 in assay [7], in assay [8], in [9], in assay [11], in assay [12] and in [13] was > 100 µM (inactive) each time. In addition, the GI50 in assay [14], in [15] and in assay [16] was > 100 µM (inactive) throughout.

In the case of `CCOC(=O)c1[nH]c(Br)c(-c2ccc(OC)c(OC)c2)c1Br`, the GI50 is 0.0173 µM (active) in [1]; 0.0476 µM (active) in assay [2]; 0.0183 µM (active) in assay [3]; 0.0303 µM (active) in assay [4]; 0.0262 µM (active) in assay [5]; 0.0381 µM (active) in assay [6]. For the same molecule, the GI50 in assay [7] was 4.82 µM (inactive); in assay [8] it was 0.0356 µM (active); in assay [9], 0.178 µM (active); in assay [10], 0.00975 µM (active); in assay [12], 0.0412 µM (active); in assay [13], 0.0214 µM (active). Further, the results for the GI50 in [14], in assay [15] and in [16] were 0.0302 µM (active), 14 µM (inactive) and 0.00386 µM (active), respectively.
